Patent publication US20140050754A1, “IMMUNOGENIC CHIKUNGUNYA VIRUS PEPTIDES” (priority 2010, published 2014)

How the values were obtained:
[1] = test system: CHIKV (SGP11) infection of HEK 293T cells; assay: Peptide blocking assay with human plasma followed by sero-neutralization assay; assay type: cell-based, Chikungunya virus; conditions: patients' plasma pools 1:500; 20% without peptide
Experimental: Neutralizing activity of CHIKV-infected patient samples were test in triplicates and were analyzed by immunofluorescence-based cell infection assay in HEK 293T cells, using Singapore strain CHIKV (SGP11). CHIKV were mixed at MOI 10 with diluted (1:100, 500 or 1,000) heat-inactivated human plasma and incubated for 2 hours at about 37° C. with gentle agitation (350 rpm). Virus-antibody mixtures were then added to HEK 293T cells seeded in 96-well plates and incubated for 1.5 hours at about 37° C. Virus inoculums (medium) were removed, and cells were replenished with DMEM medium supplied with 5% FBS and incubated for about 6 hours at about 37° C. before fixation with 4% paraformaldehyde followed by immunofluorescence quantification using the Cellomics ArrayScan V. The Cellomics ArrayScan. V was used as a complementary means of assessing neutralization capabilities of patients' plasma (same set-up as mentioned above), but involves an assessment endpoint at 6 hours post-infection (pi) to capture possible early protective responses against virus infection. Percentage infectivity was detected with High Content Screening and was calculated according to the equation: % Infectivity=100×(% responder from sero-neutralization group/% responder from virus infection group). […]
Outputs were expressed as percentage control infection. […]

[2] = test system: anti-CHIKV IgG3 antibodies in pooled patients' plasma; assay: Affinity depletion of anti-E2EP3 antibodies, read by virion-based ELISA; assay type: binding, human; conditions: pooled plasma median 10 days pio, whole virus ELISA, relative to non-depleted samples
Experimental: […]; 50 μl/well). Wells were blocked with PBST-milk (PBS, 0.05% Tween 20, 5% non-fat milk) and plates were incubated for about 1.5 hours at about 37° C. Plasma samples were then diluted 1:500, 1:2000 in PBST-milk and incubated 1 hour at about 37° C. HRP-conjugated mouse anti-human IgG, IgG1, IgG2, IgG3, IgG4 and IgM (Molecular Probes) were used to detect human antibodies bound to virus-coated wells. Reactions were developed using TMB substrate (Sigma-Aldrich) and stopped with stopping reagent (Sigma-Aldrich). The absorbance was measured at 450 nm. Healthy donor samples were used as controls. ELISA determinations were done in duplicates and the values plotted as means±standard error means (SEM).
(§1) For affinity depletion of human anti-E2EP3 antibodies, synthetic biotinylated E2EP3 peptide (EMC microcollections GmbH) was added at 450 ng/well to streptavidin-coated plates (Pierce) and incubated at room temperature for about 1 hour in PBS containing 0.1% Tween-20 (0.1% PBST). Human plasma samples were added and incubated for about 25 minutes at room temperature for absorption. The unbound portion was collected after 21 rounds of absorption. ELISA analysis was performed to verify the levels of the antibodies during affinity depletion.
In FIG. 9(c), depleted samples as described in FIG. 9(b) were subjected to anti-CHIKV IgG3 antibodies detection. Virion-based ELISA was performed as described to measure the depletion efficiency. Outputs were expressed as percentage control IgG3 titer from non-depleted samples. Data were presented as mean±SD. Examples were performed in triplicates.

[3] = test system: CHIKV (SGP11) infection of HEK 293T cells; assay: Affinity depletion of anti-E2EP3 antibodies, read by in vitro neutralization assay; assay type: cell-based, Chikungunya virus; conditions: plasma 1:500; about 20% with non-depleted plasma
Experimental: Neutralizing activity of CHIKV-infected patient samples were test in triplicates and were analyzed by immunofluorescence-based cell infection assay in HEK 293T cells, using Singapore strain CHIKV (SGP11). CHIKV were mixed at MOI 10 with diluted (1:100, 500 or 1,000) heat-inactivated human plasma and incubated for 2 hours at about 37° C. with gentle agitation (350 rpm). Virus-antibody mixtures were then added to HEK 293T cells seeded in 96-well plates and incubated for 1.5 hours at about 37° C. Virus inoculums (medium) were removed, and cells were replenished with DMEM medium supplied with 5% FBS and incubated for about 6 hours at about 37° C. before fixation with 4% paraformaldehyde followed by immunofluorescence quantification using the Cellomics ArrayScan V. The Cellomics ArrayScan. V was used as a complementary means of assessing neutralization capabilities of patients' plasma (same set-up as mentioned above), but involves an assessment endpoint at 6 hours post-infection (pi) to capture possible early protective responses against virus infection. Percentage infectivity was detected with High Content Screening and was calculated according to the equation: % Infectivity=100×(% responder from sero-neutralization group/% responder from virus infection group).
as §1
In FIG. 9(d), in vitro neutralizing activity of anti-E2EP3 antibodies against CHIKV-infected patients' plasma samples was observed. […] Outputs were expressed as percentage control infection. […]

[4] = test system: CHIKV (SGP11); assay: CHIKV challenge of vaccinated mice: footpad swelling (inflammation); assay type: in vivo; conditions: day 0 to day 14 post-challenge
Experimental: (§2) Lyophilized KLH-E2EP3 peptide was dissolved in DMSO (Sigma-Aldrich) to a working concentration of 5 mg/mL. Three-weeks old, female, C57BL/6J (sample size, n=7) were vaccinated subcutaneously in the abdominal flank with 100 μg of KLH-E2EP3 peptide prepared in 100 μl emulsion with 50% Complete Freund's Adjuvant (CFA) (Sigma-Aldrich) in PBS. Vaccinated mice were further boosted another two times at day 14 and day 21 with 50 μg of the peptide prepared in Incomplete Freund's Adjuvant (IFA) (Sigma-Aldrich). Control mice (n=7) were vaccinated with PBS/CFA and PBS/IFA on first vaccination and subsequent booster shots respectively. […] Viremia and degree of inflammation were monitored. […] Hind footpads of mice were measured daily using a vernier calliper from day 0 to day 14 post-infection. Measurements were done for the height (thickness) and the breadth of the foot and quantified as [height×breadth]. Degree of inflammation was expressed as relative increase in footpad size as compared to pre-infection with the following formula: [(day x−day 0)÷day 0] where x is the footpad measurements for each respective day post-infection.
(§3) Mice were immunized with E2EP3 peptide complex to KLH or PBS Control emulsified with Complete Freund's Adjuvant (CFA) subcutaneously, and were boosted two more times with Incomplete Freund's Adjuvant (IFA). […] Outputs were expressed as percentage infection relative to PBS Control. […]

[5] = test system: CHIKV (SGP11); assay: CHIKV challenge of vaccinated mice: viremia by virus plaque assay; assay type: in vivo; conditions: 2 days post-challenge, challenge 30 days post-vaccination with 10^6 PFU s.c.; PBS control 4,500
Experimental: as §2, §3

[6] = test system: CHIKV infection of HEK 293T cells; assay: Peptide blocking assay with NHP plasma followed by in vitro neutralization assay; assay type: cell-based, Chikungunya virus; conditions: NHP plasma dilution series 1:100 to 1:3200, compared to untreated plasma
[7] = test system: C57BL/6J mice; assay: KLH-E2EP3 vaccination of mice: E2EP3 specific peptide-based ELISA; assay type: in vivo; conditions: KLH-linked E2EP3 with CFA/IFA
Experimental: as §2
Importantly, the sera obtained at 27 days post-vaccination were able to neutralize CHIKV-infection in vitro. In FIGS. 17(a) and 17(b), mouse anti-E2EP3 IgG antibodies were detected after the second and third vaccination. All outputs were expressed as mean±SD. […]

[8] = test system: CHIKV infection in vitro; assay: In vitro neutralizing activity of E2EP3-vaccinated mouse sera; assay type: cell-based, Chikungunya virus; conditions: sera 27 days post-vaccination, dilution 1:100
Experimental: Neutralizing activity of CHIKV-infected patient samples were test in triplicates and were analyzed by immunofluorescence-based cell infection assay in HEK 293T cells, using Singapore strain CHIKV (SGP11). CHIKV were mixed at MOI 10 with diluted (1:100, 500 or 1,000) heat-inactivated human plasma and incubated for 2 hours at about 37° C. with gentle agitation (350 rpm). Virus-antibody mixtures were then added to HEK 293T cells seeded in 96-well plates and incubated for 1.5 hours at about 37° C. Virus inoculums (medium) were removed, and cells were replenished with DMEM medium supplied with 5% FBS and incubated for about 6 hours at about 37° C. before fixation with 4% paraformaldehyde followed by immunofluorescence quantification using the Cellomics ArrayScan V. The Cellomics ArrayScan. […] Percentage infectivity was detected with High Content Screening and was calculated according to the equation: % Infectivity=100×(% responder from sero-neutralization group/% responder from virus infection group).
Lyophilized KLH-E2EP3 peptide was dissolved in DMSO (Sigma-Aldrich) to a working concentration of 5 mg/mL. […] Viremia and degree of inflammation were monitored. […] Hind footpads of mice were measured daily using a vernier calliper from day 0 to day 14 post-infection. Measurements were done for the height (thickness) and the breadth of the foot and quantified as [height×breadth]. […]

[9] = test system: E2EP3-specific IgG3 antibodies in pooled patients' plasma; assay: Affinity depletion of anti-E2EP3 antibodies, read by E2EP3 specific peptide-based ELISA; assay type: binding, human; conditions: pooled plasma median 10 days pio, relative to non-depleted samples
Experimental: as §1
Plasma samples (Median 10 days pio) were incubated with E2EP3 (K3, N5, K10), E2EP3 with double alanine substitution at lysine residues (K3A, N5, K10A) or triple alanine substitution at lysine and asparagine (K3A, N5A, K10A) peptides. E2EP3 specific peptide-based ELISA was performed to measure the depletion efficiency. Outputs were expressed as percentage control IgG3 titer from non-depleted samples. Data were presented as mean±SD. Examples were performed in triplicates.

Substance: STKDNFNVYKATRPYLAHC [E2EP3]
- CHIKV infection (percentage control infection) after blocking with soluble E2EP3 peptide [1]: ~40%
- reduction of total anti-CHIKV IgG3 titer after depletion with peptide [2]: ~80%
- virus infectivity (percentage control infection) with peptide-depleted plasma [3]: more than 50%
- maximal footpad swelling of PBS-vaccinated group relative to E2EP3-vaccinated group [4]: more than twice
- CHIKV viremia [5]: 2,000 pfu/mL
- effect of soluble peptide on neutralization by CHIKV-infected NHP plasma [6]: abrogated the inhibitory effect of monkey plasma samples significantly
- anti-E2EP3 IgG titer ([7]; 19 days post-vaccination, after 1st boost): Significant anti-E2EP3 titer
- anti-E2EP3 IgG titer ([7]; 27 days post-vaccination, after 2nd boost): further increased
- reduction of infectivity compared to the PBS-vaccinated control group [8]: approximately 40%

Substance: K3A/K10A (STADNFNVYAATRPYLAHC)
- E2EP3-specific IgG3 depleted from patients' plasma by surface-bound peptide [9]: 30%
- reduction of total anti-CHIKV IgG3 titer after depletion with peptide [2]: 40%
- virus infectivity (percentage control infection) with peptide-depleted plasma [3]: only a gradual decrease of the neutralizing efficacy

Substance: K3A/N5A/K10A (STADAFNVYAATRPYLAHC)
- E2EP3-specific IgG3 depleted from patients' plasma by surface-bound peptide [9]: 15%
- reduction of total anti-CHIKV IgG3 titer after depletion with peptide [2]: 20%
- virus infectivity (percentage control infection) with peptide-depleted plasma [3]: only a gradual decrease of the neutralizing efficacy
